pIC50: −log10 of the molar value. Where a name gives a salt, the structure may show the parent alone.
Experiments:
[1] = tested on: multidrug-resistant (MDR) mouse T-lymphoma cells; assay: Antiproliferative MTT assay, 72 h, MDR cells; assay type: cell-based; details: for SI (selectivity index), antiproliferative: MDR with respect to PAR cells; for pIC50: Mus musculus, MDR cells, 72 h, MTT, read-out: Antiproliferative effect IC50
Description: (§1) The ABCB1-expressing cell line L5178Y (MDR) was selected by culturing the infected cells with colchicine. The parental L5178 mouse T-cell lymphoma cells and the L5178Y human ABCB1-transfected subline were cultured in McCoy’s 5A medium (Sigma-Aldrich, St Louis, MO, USA) supplemented with 10% heat-inactivated horse serum (Sigma-Aldrich, St Louis, MO, USA), 200 mM L-glutamine (Sigma-Aldrich, St Louis, MO, USA), and a penicillin-streptomycin (Sigma-Aldrich, St Louis, MO, USA) mixture in concentrations of 100 U/L and 10 mg/L, respectively.
(§2) Cytotoxicity and antiproliferative assays were performed following the procedure described in the literature. Parental and multidrug-resistant mouse T-lymphoma cells were used to determine the effect of the arylideneimidazolones on the growth of cells. The effects of increasing concentrations of arylideneimidazolones on cell growth were tested in 96-well flat-bottomed microtiter plates. The compounds were diluted in a volume of 100 μL of medium.
(§3) In the case of the mouse T-lymphoma cells, the two-fold serial dilutions were prepared in 100 μL of McCoy’s 5A, horizontally. The parental (PAR) and multidrug-resistant (MDR) mouse T-lymphoma cells were adjusted to a density of 1 × 10^4 cells (for cytotoxic assay) and 6 × 10^3 (for antiproliferative assay) in 100 μL of McCoy’s 5A medium and were added to each well, with the exception of the medium control wells.
(§4) Cell growth was determined by measuring the optical density (OD) at 540/630 nm with a Multiscan EX ELISA reader (Thermo Labsystems, Cheshire, WA, USA).

[2] = tested on: parental (PAR) mouse T-lymphoma cells; assay: Antiproliferative MTT assay, 72 h, PAR cells; assay type: cell-based; details: read-out: Antiproliferative effect IC50
Description: as §1, §2, §3, §4

ABCB1 efflux pump = ABCB1 efflux pump (Homo sapiens, UniProt P08183); assay: Rhodamine 123 accumulation assay (flow cytometry); details: for FAR Quotient (%): FAR of compound related to FAR of VER tested at 20 µM; for FAR (fluorescence activity ratio): rhodamine 123 accumulation, MDR vs PAR mouse T-lymphoma cells
Chain of ABCB1 efflux pump (P08183 whole entry): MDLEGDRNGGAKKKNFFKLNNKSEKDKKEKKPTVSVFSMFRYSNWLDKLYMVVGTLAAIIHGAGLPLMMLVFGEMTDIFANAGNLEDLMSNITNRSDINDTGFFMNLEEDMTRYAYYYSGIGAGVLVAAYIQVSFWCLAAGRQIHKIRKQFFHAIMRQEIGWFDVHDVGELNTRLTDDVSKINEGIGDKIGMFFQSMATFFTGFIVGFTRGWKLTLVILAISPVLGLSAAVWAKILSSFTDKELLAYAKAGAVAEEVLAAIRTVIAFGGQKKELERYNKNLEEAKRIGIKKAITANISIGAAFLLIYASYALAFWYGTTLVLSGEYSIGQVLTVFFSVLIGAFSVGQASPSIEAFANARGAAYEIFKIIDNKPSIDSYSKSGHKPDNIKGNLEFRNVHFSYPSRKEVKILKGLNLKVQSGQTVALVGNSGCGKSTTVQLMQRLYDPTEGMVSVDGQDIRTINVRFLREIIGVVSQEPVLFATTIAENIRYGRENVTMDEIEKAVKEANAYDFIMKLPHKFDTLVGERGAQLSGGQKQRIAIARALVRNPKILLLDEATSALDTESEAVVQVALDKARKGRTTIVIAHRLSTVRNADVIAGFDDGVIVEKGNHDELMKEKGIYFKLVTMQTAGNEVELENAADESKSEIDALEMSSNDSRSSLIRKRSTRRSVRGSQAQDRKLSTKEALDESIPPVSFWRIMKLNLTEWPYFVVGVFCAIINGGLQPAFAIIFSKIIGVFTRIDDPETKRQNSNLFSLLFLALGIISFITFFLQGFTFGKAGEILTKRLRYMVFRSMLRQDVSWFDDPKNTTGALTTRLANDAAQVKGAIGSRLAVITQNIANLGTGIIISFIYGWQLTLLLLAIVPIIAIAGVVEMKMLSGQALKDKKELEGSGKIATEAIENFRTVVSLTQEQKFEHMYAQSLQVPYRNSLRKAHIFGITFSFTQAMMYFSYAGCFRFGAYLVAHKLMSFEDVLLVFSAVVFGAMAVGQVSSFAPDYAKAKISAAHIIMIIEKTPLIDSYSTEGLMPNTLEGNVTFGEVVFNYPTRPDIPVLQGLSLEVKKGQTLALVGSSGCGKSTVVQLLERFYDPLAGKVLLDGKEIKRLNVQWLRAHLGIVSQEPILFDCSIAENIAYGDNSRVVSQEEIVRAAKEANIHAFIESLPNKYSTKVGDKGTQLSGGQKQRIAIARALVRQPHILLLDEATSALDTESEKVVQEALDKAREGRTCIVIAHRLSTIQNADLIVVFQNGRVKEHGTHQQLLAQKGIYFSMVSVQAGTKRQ
Description: The study was carried out on mouse T-lymphoma cell lines, including the parental sensitive line (PAR) and its multidrug-resistant subline (MDR) transfected with the human MDR1 (ABCB1) gene. […] The fluorescence activity ratio (FAR), as a measure of the efflux pump modulating properties, was calculated based on the fluorescence data obtained [23, 24, 25]. […] The parental L5178 mouse T-cell lymphoma cells and the L5178Y human ABCB1-transfected subline were cultured in McCoy’s 5A medium (Sigma-Aldrich, St Louis, MO, USA) supplemented with 10% heat-inactivated horse serum (Sigma-Aldrich, St Louis, MO, USA), 200 mM L-glutamine (Sigma-Aldrich, St Louis, MO, USA), and a penicillin-streptomycin (Sigma-Aldrich, St Louis, MO, USA) mixture in concentrations of 100 U/L and 10 mg/L, respectively.
The potency of the tested compounds as inhibitors of the ABCB1 efflux pump was determined using a fluorescence-based detection system, described previously in the literature [23, 26]. […] The parental (PAR) and multidrug-resistant (MDR) mouse T-lymphoma cells were adjusted to a density of 2 × 10^6/mL, re-suspended in serum-free McCoy’s 5A medium, and distributed in 0.5 mL aliquots into Eppendorf centrifuge tubes. […] The fluorescence intensity of the cell population was measured with a Partec CyFlow flow cytometer (Partec, Munster, Germany). […] The mean fluorescence intensity (%) was calculated for the treated MDR and PAR mouse T-lymphoma cells as compared to the untreated cells.

[3] = Cytotoxicity MTT assay, 24 h, MDR cells; assay type: cell-based; details: mouse; for IC50 at 24 h: MDR cells, MTT, read-out: Cytotoxic effect IC50; for selectivity ratio at 24 h: cytotoxic action on MDR with respect to PAR cells, read-out: SI (selectivity index), cytotoxicity
Description: (§5) The cytotoxicity of compounds 7–20 was examined in both aforementioned PAR and MDR mouse T-lymphoma cell lines, using the MTT assay to estimate IC50 values. The selectivity index for cytotoxic action on MDR with respect to PAR cells was calculated (SI, Table 3). […] This range of SI may indicate ABCB1-efflux pump substrate properties for the whole series (7–20), especially distinct in the case of 19 (SI ≤ 0.29), and slightly weaker for 8, 12, 16, and 18.
as §1, with “L5178 mouse T-cell lymphoma cells (PAR) (ECACC Cat. No. 87111908, obtained from FDA, Silver Spring, MD, USA) were transfected with pHa MDR1/A retrovirus, as previously described by Cornwell et al.. The ABCB1-expressing” for “The ABCB1-expressing”, “mg/L, respectively. The cell lines were incubated at 37 °C, in a 5% CO2, 95% air atmosphere.” for “mg/L, respectively.”
as §2, §3
(§6) The culture plates were incubated at 37 °C for 24 h (for cytotoxicity assay) and 72 h (for antiproliferative assay); at the end of the incubation period, 20 μL of MTT (thiazolyl blue tetrazolium bromide, Sigma) solution (from a stock solution of 5 mg/mL) were added to each well. After incubation at 37 °C for 4 h, 100 μL of sodium dodecyl sulfate (SDS) (Sigma) solution (10% in 0.01 M HCI) were added to each well and the plates were further incubated at 37 °C overnight. Cell growth was determined by measuring the optical density (OD) at 540/630 nm with a Multiscan EX ELISA reader (Thermo Labsystems, Cheshire, WA, USA).
(§7) Results have been expressed in terms of IC50, defined as the inhibitory dose that reduces the growth of the cells exposed to the tested compounds by 50%, each representing the mean of a minimum of three independent experiments.

[4] = Cytotoxicity MTT assay, 24 h, PAR cells; assay type: cell-based; details: mouse, parental (PAR) L5178 mouse T-cell lymphoma cells, read-out: Cytotoxic effect IC50
Description: as §5
as §1, with “L5178 mouse T-cell lymphoma cells (PAR) (ECACC Cat. No. 87111908, obtained from FDA, Silver Spring, MD, USA) were transfected with pHa MDR1/A retrovirus, as previously described by Cornwell et al.. The ABCB1-expressing” for “The ABCB1-expressing”, “mg/L, respectively. The cell lines were incubated at 37 °C, in a 5% CO2, 95% air atmosphere.” for “mg/L, respectively.”
as §2, §3, §6, §7

[5] = concentration 20 µM, VER values for assay group 1 / 2

SMILES | SI (selectivity index), antiproliferative [1] | pIC50 [1] | pIC50 [2] | FAR Quotient (%) (ABCB1 efflux pump; concentration 2 µM) | FAR (fluorescence activity ratio) (ABCB1 efflux pump; concentration 2 µM) | FAR Quotient (%) (ABCB1 efflux pump; concentration 20 µM) | FAR (fluorescence activity ratio) (ABCB1 efflux pump; [5]) | melting point [°C] | IC50 at 24 h [3] [µM] | selectivity ratio at 24 h [3] | IC50 at 24 h [4] [µM]
Cl.NC1=N/C(=C\c2ccc(Oc3ccccc3)cc2)C(=O)N1CCCN1CCOCC1 [Compound 17, (Z)-5-(4-Phenoxybenzylidene)-2-amino-3-(3-morpholinopropyl)-imidazol-4(5H)-one hydrochloride] | 0.85 | 4.85 | 4.91 | 5.80 | 0.929 | 14.37 | 2.301 | 210 to 212 | 23.4 | 0.92 | 21.5
Cl.O=C1N=C(N2CCC(N3CCOCC3)CC2)N/C1=C\c1c2ccccc2cc2ccccc12 [Compound 13, (Z)-5-(Anthracen-10-ylmethylene)-2-(4-morpholinopiperidin-1-yl)-imidazol-4(5H)-one hydrochloride] | 0.36 | 4.31 | 4.76 | 6.04 | 0.968 | 12.94 | 2.073 | 303 to 305 | > 100 | ≤ 0.82 | 82.2
NC1=N/C(=C\c2ccc(-c3ccccc3)cc2)C(=O)N1CCN1CCOCC1 (as salt: hydrochloride) [Compound 14] |  |  |  |  |  |  |  | 266 to 270 |  |  | 
NC1=N/C(=C\c2cccc(Oc3ccccc3)c2)C(=O)N1CCCN1CCOCC1 [Compound 16] | 0.94 | 4.92 | 4.94 | 7.09 | 0.927 | 18.55 | 2.426 |  | 31.3 | 0.51 | 16
Cl.O=C1N=C(N2CCC(N3CCOCC3)CC2)N/C1=C\c1cccc(Oc2ccccc2)c1 [Compound 10, (Z)-5-(3-Phenoxybenzylidene)-2-(4-morpholinopiperidin-1-yl)-imidazol-4(5H)-one hydrochloride] | 1.18 | 4.65 | 4.58 | 6.92 | 1.108 | 12.44 | 1.992 | 289 to 292 | 63.8 | 0.85 | 54
Cl.NC1=N/C(=C\c2ccc(-c3ccccc3)cc2)C(=O)N1CCCN1CCOCC1 [Compound 15, (Z)-5-(Biphen-4-ylmethylene)-2-amino-3-(3-morpholinopropyl)-imidazol-4(5H)-one hydrochloride] | 0.75 | 4.87 | 4.99 | 6.78 | 0.887 | 16.98 | 2.221 | 248 to 252 | 20.8 | 0.84 | 17.5
Cl.O=C1NC(N2CCOCC2)=N/C1=C\c1ccc(-c2ccccc2)cc1 [Compound 7, (Z)-5-(Biphen-4-ylmethylene)-2-morpholino-3H-imidazol-4(5H)-one hydrochloride] | 0.67 | 4.58 | 4.75 | 7.31 | 0.955 | 7.09 | 0.927 | 248 to 252 | 54.2 | 0.99 | 53.5
Cl.O=C1N=C(N2CCN(CCN3CCOCC3)CC2)N/C1=C\c1ccc(-c2ccccc2)cc1 [Compound 9, (Z)-5-(Biphen-4-ylmethylene)-2-(4-(2-morpholinoethyl)piperazin-1-yl)-imidazol-4(5H)-one hydrochloride] | 0.47 | 4.78 | 5.11 | 5.86 | 0.766 | 12.58 | 1.645 | 305 to 307 | 18.1 | 0.71 | 12.8
COc1cccc2c1C(=O)c1c(O)c3c(c(O)c1C2=O)C[C@@](O)(C(=O)CO)C[C@@H]3O[C@H]1C[C@H](N)[C@H](O)[C@H](C)O1 [DOX, doxorubicin, reference compound] | 0.16 | 5.76 | 6.55 |  |  |  |  |  | 2.14 | 0.33 | 0.7
NC1=N/C(=C\c2c3ccccc3cc3ccccc23)C(=O)N1CCCN1CCOCC1 [Compound 19] | 0.33 | 4.36 | 4.84 | 7.94 | 1.272 | 10.08 | 1.615 |  | > 100 | ≤ 0.29 | 28.6
Cl.O=C1N=C(N2CCC(N3CCOCC3)CC2)N/C1=C\c1ccc(-c2ccccc2)cc1 [Compound 8, (Z)-5-(Biphen-4-ylmethylene)-2-(4-morpholinopiperidin-1-yl)-imidazol-4(5H)-one hydrochloride] | 0.57 | 4.59 | 4.83 | 8.49 | 1.359 | 15.04 | 2.409 | 267 to 269 | 46.4 | 0.52 | 24
NC1=N/C(=C\c2ccc(-c3ccccc3)cc2)C(=O)N1CCN1CCOCC1 [Compound 14] | 0.89 | 4.56 | 4.60 | 6.22 | 0.814 | 6.48 | 0.847 |  | 57.4 | 0.64 | 36.9
Cl.NC1=N/C(=C\c2cc3ccccc3c3ccccc23)C(=O)N1CCCN1CCOCC1 [Compound 20, (Z)-5-(Phenanthren-9-ylmethylene)-2-amino-3-(3-morpholinopropyl)-imidazol-4(5H)-one hydrochloride] | 0.85 | 4.76 | 4.83 | 5.59 | 0.896 | 7.72 | 1.237 | 238 to 240 | 24.9 | 0.79 | 19.6
